Values after ≈ are worked out from the molar mass of the structure shown.
Test: Ichthyotoxicity against Oryzias latipes after 24 hrs
Type: organism-based
Settings: in vivo, read-out: TLm
For `CCCCCCCCCCCCCC(=O)OCCC[C@@H]1/C(=C(/C)C=O)CC[C@](C)(O)[C@@]1(C)CC/C=C(\C)[C@@H](C/C=C(\C)CCC=C(C)C)OC(C)=O`, the LC50 at 24 h was > 10 µg/mL.
Molecule `CC(C)=CCC/C(C)=C/C=C/C(C)=C/[C@@H]1C[C@@]2(C(O)O1)[C@H](CCCO)/C(=C(/C)C=O)CC[C@]2(C)O` (some centres not stated) has an LC50 at 24 h of 5.5 µg/mL (≈ 11.3 µM).
Molecule `CC(=O)OCCC[C@@H]1/C(=C(/C)C=O)CC[C@](C)(O)[C@@]1(C)CC/C=C(\C)[C@H](O)C/C=C(\C)CCC=C(C)C` has an LC50 at 24 h of 0.8 µg/mL (≈ 1.55 µM).
With `CC(=O)OCCC[C@@H]1/C(=C(/C)C=O)CC[C@](C)(O)[C@@]1(C)CC/C=C(\C)[C@@H](C/C=C(\C)CCC=C(C)C)OC(C)=O` the LC50 at 24 h was > 10 µg/mL.
`C=C(/C=C/C=C(\C)CCC=C(C)C)[C@@H]1CC[C@]2([C@H](CCCO)/C(=C(/C)C=O)CC[C@]2(C)O)[C@@H]1O` gave an LC50 at 24 h of 1.6 µg/mL (≈ 3.4 µM).
In the case of `CCCCCCCCCC(=O)OCCC[C@@H]1/C(=C(/C)C=O)CC[C@](C)(O)[C@@]1(C)CC/C=C(\C)[C@@H](C/C=C(\C)CCC=C(C)C)OC(C)=O`, the LC50 at 24 h is reported as > 30 µg/mL.
With `CC(C)=CCC/C(C)=C/C=C/C(C)=C/[C@@H]1C[C@@]23[C@H](OCCC[C@@H]2/C(=C(/C)C=O)CC[C@]3(C)O)O1` [ANHYDROBELACHINAL] the LC50 at 24 h was > 10 µg/mL.
`CC(C)=CCC/C(C)=C/C=C/C(C)=C/[C@H]1C[C@@]2(C(O)O1)[C@H](CCCO)/C(=C(/C)C=O)CC[C@]2(C)O` (some centres not stated) [BELACHINAL] showed an LC50 at 24 h of 2.8 µg/mL (≈ 5.75 µM).
With `C=C1CC/C=C(\C)C(=O)[C@H](O)[C@@H]2[C@@H]1CC2(C)C` [BUDDLEDIN B] the LC50 at 24 h was 1.2 µg/mL (≈ 5.12 µM).
In the case of `CC(C)=CCC/C(C)=C/C=C/C(C)=C/[C@H]1C[C@@]23[C@H](OCCC[C@@H]2/C(=C(/C)C=O)CC[C@]3(C)O)O1` [EPIANHYDROBELACHINAL], the LC50 at 24 h is reported as > 10 µg/mL.
In the case of `CCCCCCCCCCCCCC(=O)OCCC[C@@H]1/C(=C(/C)C=O)CC[C@](C)(O)[C@@]1(C)CC/C=C(\C)[C@H](O)C/C=C(\C)CCC=C(C)C` [IRISTECTORENE B], the LC50 at 24 h is reported as 3.5 µg/mL (≈ 5.11 µM).
`CC(C)=CCC/C(C)=C/C[C@@H](O)/C(C)=C/CC[C@@]1(C)[C@H](CCCO)/C(=C(/C)C=O)CC[C@]1(C)O` [ISOIRIDOGERMANAL] showed an LC50 at 24 h of 9.3 µg/mL (≈ 19.6 µM).

— ChEMBL document CHEMBL1157990, “Iridal-type triterpenoids with ichthyotoxic activity from belamcanda chinensis” (J Nat Prod, 1999)
